Laboratory results as given in ChEMBL document CHEMBL1131818, “Novel quinolinequinone antitumor agents: structure-metabolism studies with NAD(P)H:quinone oxidoreductase (NQO1)” (Bioorg Med Chem Lett, 1999).

Assay: Metabolism by recombinant human NAD(P)H:quinone oxidoreductase (NQO1) was evaluated
Type: ADME

| NADH oxidation | SMILES |
| --- | --- |
| 28.8 µM/min/mg | COC1=CC(=O)c2nc(-c3ccccc3)ccc2C1=O |
| 32.1 µM/min/mg | COC1=CC(=O)c2nc(-c3cccs3)ccc2C1=O |
| 14 µM/min/mg | COC1=CC(=O)c2nc(-c3ccc4ccccc4c3)ccc2C1=O |
| 45.7 µM/min/mg | COC1=CC(=O)c2nc(-c3ccc(C)cn3)ccc2C1=O |
| 58.7 µM/min/mg | COC1=CC(=O)c2ncccc2C1=O |
| 33.3 µM/min/mg | COC1=CC(=O)c2nc(-c3cc4ccccc4o3)ccc2C1=O |
| 25.1 µM/min/mg | COC1=CC(=O)c2nc(-c3cccc4ccccc34)ccc2C1=O |
| 50.5 µM/min/mg | COC1=CC(=O)c2nc(-c3ccccn3)ccc2C1=O |
| 5.31 µM/min/mg | COC1=CC(=O)c2c(cc(C)n2C)C1=O |
| 19.2 µM/min/mg | COC1=CC(=O)c2nc(-c3ccc(C)cc3)ccc2C1=O |
| 4.75 µM/min/mg | COC1=CC(=O)c2nc(-c3ccc(-c4ccccc4)cc3)ccc2C1=O |
| 26.2 µM/min/mg | O=C1C(N2CCCC2)=CC(=O)c2ncccc21 |
| 100 µM/min/mg | COC1=CC(=O)c2nc(Cl)ccc2C1=O |
| 47.4 µM/min/mg | COC1=C(N)C(=O)c2nc(-c3nc(C(=O)O)c(C)c(-c4ccc(OC)c(OC)c4O)c3N)ccc2C1=O [STREPTONIGRIN] |
